Consider 7 molecules from patent US11542251B2, “IRAK degraders and uses thereof” (DANA-FARBER CANCER INSTITUTE, INC., priority 2018, dated 2023).

pIC50: −log10 of the molar value.

Assay [1] deals with T1, IRAK1 (Homo sapiens (Human), UniProt P51617). Nature of the assay: Adapta kinase assay, IRAK1. The assay is classed as biochemical. The following applies: Adapta kinase assay format. An excerpt: (§1) The IRAK1 and IRAK 4 IC50 values for various compounds disclosed herein generated from an Adapta® kinase assay format, and a Z′-LYTE™ kinases assay format, respectively, are shown in Table 1.

Assay [2] addresses T2, IRAK4 (Homo sapiens (Human), UniProt Q9NWZ3). Nature of the assay: Immunoblotting, IRAK4 degradation in BCWM.1 cells. The assay is classed as cell-based. The following applies: overnight treatment. The procedure:
(§2) The degradation of IRAK1 or IRAK4 proteins in BCWM.1 cells was determined by immunoblotting using BCWM.1 total cell lysates prepared following overnight treatment with IRAK1/4 degraders or inhibitors using anti-IRAK1 and anti-IRAK4 antibodies (Cell Signaling Technologies, Danvers Mass.). Anti-GAPDH antibody (Santa Cruz Biotechnology) was used for determination of protein loading.
On the technique in general: A western blot detects proteins with antibodies after separation by electrophoresis.

The target of assay [3] is T1, IRAK1. Nature of the assay: Immunoblotting, IRAK1 degradation in BCWM.1 cells. The assay is classed as cell-based. The following applies: overnight treatment. The method, then:
as §2

Assay [4] deals with T2, IRAK4. Kind of assay: Z'-LYTE kinase assay, IRAK4. The assay is classed as biochemical. To be noted: Z'-LYTE kinase assay format.
From the text: as §1

The mark [5] stands for this setting: concentrations as high as 10 μM.

T2 sequence (Q9NWZ3 whole entry): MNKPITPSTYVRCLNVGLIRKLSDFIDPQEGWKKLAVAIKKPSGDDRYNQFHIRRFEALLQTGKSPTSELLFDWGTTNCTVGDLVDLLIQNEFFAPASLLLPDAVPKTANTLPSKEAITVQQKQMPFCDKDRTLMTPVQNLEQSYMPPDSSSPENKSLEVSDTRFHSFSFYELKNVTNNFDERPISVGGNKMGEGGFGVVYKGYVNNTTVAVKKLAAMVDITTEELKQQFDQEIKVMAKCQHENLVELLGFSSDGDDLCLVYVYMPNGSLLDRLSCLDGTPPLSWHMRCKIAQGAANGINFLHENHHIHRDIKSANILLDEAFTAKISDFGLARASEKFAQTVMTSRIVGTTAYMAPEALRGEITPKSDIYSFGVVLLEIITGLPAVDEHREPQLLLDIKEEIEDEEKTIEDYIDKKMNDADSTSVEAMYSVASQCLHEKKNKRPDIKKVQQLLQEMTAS
T1 sequence (P51617 whole entry): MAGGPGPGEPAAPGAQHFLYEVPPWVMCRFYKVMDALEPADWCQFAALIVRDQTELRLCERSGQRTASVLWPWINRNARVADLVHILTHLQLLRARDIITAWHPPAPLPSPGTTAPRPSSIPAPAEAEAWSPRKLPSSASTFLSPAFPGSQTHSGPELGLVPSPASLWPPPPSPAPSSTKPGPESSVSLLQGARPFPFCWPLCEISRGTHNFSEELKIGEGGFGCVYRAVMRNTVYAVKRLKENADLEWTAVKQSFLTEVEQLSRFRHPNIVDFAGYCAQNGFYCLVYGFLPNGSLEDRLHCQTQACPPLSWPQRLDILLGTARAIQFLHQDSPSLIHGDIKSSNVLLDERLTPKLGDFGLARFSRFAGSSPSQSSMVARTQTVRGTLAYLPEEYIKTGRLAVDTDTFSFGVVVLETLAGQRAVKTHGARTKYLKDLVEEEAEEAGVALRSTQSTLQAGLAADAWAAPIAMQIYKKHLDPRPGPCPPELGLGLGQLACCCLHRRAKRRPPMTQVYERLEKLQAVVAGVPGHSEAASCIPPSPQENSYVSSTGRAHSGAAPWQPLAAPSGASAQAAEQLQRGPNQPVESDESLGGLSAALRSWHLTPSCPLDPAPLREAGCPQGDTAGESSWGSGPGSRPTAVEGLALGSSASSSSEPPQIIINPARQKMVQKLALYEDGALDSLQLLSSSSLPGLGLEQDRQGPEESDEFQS

One may read the pIC50 as the negative decadic logarithm of the IC50, by convention in mol/L. Low values mean a large IC50, high ones a small IC50. Consider `O=C1CCC(N2C(=O)c3cccc(NCCOCCOCCOCCOCCC(=O)N4CCC(c5cc(NC(=O)c6cccc(-c7ccn[nH]7)n6)n(-c6ccccn6)n5)CC4)c3C2=O)C(=O)N1` (stereo not drawn) [Compound 1, N-(3-(1-(1-((2-(2,6-dioxopiperidin-3-yl)-1,3-dioxoisoindolin-4-yl)amino)-3,6,9,12-tetraoxapentadecan-15-oyl)piperidin-4-yl)-1-(pyridin-2-yl)-1H-pyrazol-5-yl)-6-(1H-pyrazol-5-yl)picolinamide], for which the values for the negative-log IC50 (pIC50) against IRAK1 [1] and at IRAK4 [4] were 7.37 and 7.80, respectively. Also, the “degradation of IRAK4 protein” value at IRAK4 [2] (FIG. 4) was “degraded”. The “degradation of IRAK1 protein” value on IRAK1 [3] (FIG. 4) is listed as “degraded”.

Consider `O=C1CCC(N2C(=O)c3cccc(NCCOCCOCCC(=O)N4CCC(c5cc(NC(=O)c6cccc(-c7ccn[nH]7)n6)n(-c6ccccn6)n5)CC4)c3C2=O)C(=O)N1` (stereo not drawn) [Compound 2], for which the pIC50 against IRAK1 [1] is 7.38; on IRAK4 [4], 7.36.

On to `O=C1CCC(N2Cc3c(NCCOCCOCCC(=O)N4CCC(c5cc(NC(=O)c6cccc(-c7ccn[nH]7)n6)n(-c6ccccn6)n5)CC4)cccc3C2=O)C(=O)N1` (stereo not drawn) [Compound 3, N-(3-(1-(3-(2-(2-((2-(2,6-dioxopiperidin-3-yl)-1-oxoisoindolin-4-yl)amino)ethoxy)ethoxy)propanoyl)piperidin-4-yl)-1-(pyridin-2-yl)-1H-pyrazol-5-yl)-6-(1H-pyrazol-5-yl)picolinamide], for which the pIC50 against IRAK1 [1] was 7.40; against IRAK4 [4], 7.74.

`O=C1CCC(N2C(=O)c3cccc(OCCCCCCCCC(=O)N4CCC(c5cc(NC(=O)c6cccc(-c7ccn[nH]7)n6)n(-c6ccccn6)n5)CC4)c3C2=O)C(=O)N1` (stereo not drawn) [Compound 4, N-(3-(1-(9-((2-(2,6-dioxopiperidin-3-yl)-1,3-dioxoisoindolin-4-yl)oxy)nonanoyl)piperidin-4-yl)-1-(pyridin-2-yl)-1H-pyrazol-5-yl)-6-(1H-pyrazol-5-yl)picolinamide]: the negative logarithm of the IC50 (pIC50) at IRAK1 [1] is 6.67; at IRAK4 [4], 6.85.

Turning to `CN1C(=O)CCC(N2C(=O)c3cccc(NCCOCCOCCOCCOCCC(=O)N4CCC(c5cc(NC(=O)c6cccc(-c7ccn[nH]7)n6)n(-c6ccccn6)n5)CC4)c3C2=O)C1=O` (stereo not drawn) [Compound C1], on IRAK4 [2] (setting [5]), the “degradation of IRAK4 protein” value is “no degradation”. Also, the “degradation of IRAK1 protein” value at IRAK1 [3] (setting [5]) was “no degradation”.

With `CC(C)N1CCC(c2cc(NC(=O)c3cccc(-c4ccn[nH]4)n3)n(-c3ccccn3)n2)CC1` [TL1, reference compound], the negative logarithm of the IC50 (pIC50) at IRAK1 [1] is 8.15; at IRAK4 [4], 8.52. Further, the “effect on IRAK4 protein levels” value at IRAK4 [2] (concentration of 10 μM) is reported as “no effect”. Moreover, at IRAK1 [3] (concentration of 10 μM), the “effect on IRAK1 protein levels” value was “no effect”.

In the case of `C=CC(=O)Nc1cccc(C(=O)Nc2ccc(NC(=O)c3cccc(-c4ccn[nH]4)n3)cc2)c1` [TL2, reference compound], the pIC50 on IRAK1 [1] was 8.05; on IRAK4 [4], below 5.00.
